The target of assay [1] is T1, Butyrophilin subfamily 3 member A1 (Homo sapiens, UniProt O00481). Kind of assay: Inhibition of HMBPP binding to BTN3A1 intracellular domain (unknown origin) at compound to HMBPP molar ratio of 100 by isothermal titration calorimetry.
Target sequence in this assay (O00481 30-513 limits assumed): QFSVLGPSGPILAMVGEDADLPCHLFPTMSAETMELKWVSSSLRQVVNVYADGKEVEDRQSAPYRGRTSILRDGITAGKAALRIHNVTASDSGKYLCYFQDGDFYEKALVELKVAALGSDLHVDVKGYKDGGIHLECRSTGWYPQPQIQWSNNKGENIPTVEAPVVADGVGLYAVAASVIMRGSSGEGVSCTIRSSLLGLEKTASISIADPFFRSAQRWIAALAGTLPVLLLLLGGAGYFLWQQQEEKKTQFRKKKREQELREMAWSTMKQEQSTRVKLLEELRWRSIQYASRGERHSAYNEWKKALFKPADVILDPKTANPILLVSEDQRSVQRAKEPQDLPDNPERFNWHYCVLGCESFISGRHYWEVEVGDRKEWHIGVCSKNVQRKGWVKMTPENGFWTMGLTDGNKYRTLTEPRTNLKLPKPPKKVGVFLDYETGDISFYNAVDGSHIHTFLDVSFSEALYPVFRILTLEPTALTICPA
Assay [2] addresses T1, Butyrophilin subfamily 3 member A1. As to the kind of experiment: Binding affinity to BTN3A1 intracellular domain (unknown origin) at 250 uM by isothermal titration calorimetry. In general terms: ITC needs no label: the signal is the heat of the interaction.
Target sequence in this assay (O00481 30-513 limits assumed): as above
Assay [3] is described as follows: Activation of BTN3A1 in human PBMC-derived Vgamma9Vdelta2 T cells assessed as induction of interleukin 2 stimulated cell proliferation by measuring increase in CD3 positive cells incubated for 3 days followed by 11 days incubation post compound wash out with subsequent stimulation with IL-2 every 3 days measured after 14 days by flow cytometry. On the technique in general: Flow cytometry measures light scatter and fluorescence of single cells or particles in a stream.

Assay [4] addresses T1, Butyrophilin subfamily 3 member A1. Kind of assay: Activation of BTN3A1 in human PBMC-derived Vgamma9Vdelta2 T cells assessed as induction of interferon gamma production in response to K562 cells preincubated for 4 hrs […] followed by 11 days incubation post compound wash out with subsequent coculturing with Vgamma9Vdelta2 T cells for 20 hrs by ELISA. Format: cell-based.
Target sequence in this assay (O00481 whole entry, the tested form may be a part): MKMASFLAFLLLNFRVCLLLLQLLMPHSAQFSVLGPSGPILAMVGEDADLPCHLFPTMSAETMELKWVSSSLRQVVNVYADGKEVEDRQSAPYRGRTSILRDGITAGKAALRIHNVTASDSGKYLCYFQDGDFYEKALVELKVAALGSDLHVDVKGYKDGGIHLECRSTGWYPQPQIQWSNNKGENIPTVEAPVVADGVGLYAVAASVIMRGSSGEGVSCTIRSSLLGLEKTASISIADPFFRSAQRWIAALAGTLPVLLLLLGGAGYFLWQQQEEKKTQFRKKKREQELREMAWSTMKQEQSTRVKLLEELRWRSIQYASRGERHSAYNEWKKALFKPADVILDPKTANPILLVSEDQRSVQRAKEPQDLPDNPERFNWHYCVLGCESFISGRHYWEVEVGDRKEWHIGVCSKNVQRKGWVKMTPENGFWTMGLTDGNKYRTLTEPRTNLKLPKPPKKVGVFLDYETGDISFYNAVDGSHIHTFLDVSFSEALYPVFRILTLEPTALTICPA

Experimental findings from ChEMBL document CHEMBL4130450, “Mixed Aryl Phosphonate Prodrugs of a Butyrophilin Ligand” (ACS Med Chem Lett, 2017) are described below.

Active and inactive are the calls of the source. No cut-off for these calls is given here.

Regarding `C/C(=C\CCP(=O)(O)Oc1cccc2ccccc12)CO`, in assay [1], the inhibition result was “inactive”. Besides, the outcome in assay [2] was inactive.

`C/C(=C\CCP(=O)(O)Oc1ccccc1)CO`: the outcome in assay [2] was inactive.

One may read the EC50 as the concentration that produces a half-maximal response. As to `C/C(=C\CCP(=O)(O)O)CO`, the EC50 in assay [3] is 4000 nM.

In the case of `C/C(=C\CCP(=O)(COC(=O)C(C)(C)C)Oc1cccc2ccccc12)CO` (stereo unspecified), the EC50 in assay [4] came to 9 nM.

Consider `C/C(=C\CCP(=O)(COC(=O)C(C)(C)C)OCOC(=O)C(C)(C)C)CO` (stereo unspecified), for which the EC50 in assay [4] was 24 nM.
